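Protocol summary: plate cells (96-well), add compound at 5 concentrations, incubate 48 h, interpolate endpoints linearly. Abbreviation: GI50, concentration required for 50% inhibition of growth.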 The source made the active and inactive calls. Cut-off read from the data, not from the text of the source: active = GI50 up to about 1.1 µM and inactive = higher.
What was measured:
Assay in all cases: inhibition of tumour cell growth, NCI panel, 48 h
A549 = system: A549
COLO 205 = system: COLO 205
DU-145 = system: DU-145
IGROV-1 = system: IGROV-1
M14 = system: M14
MDA-MB-231 = system: MDA-MB-231
NCI-H522 = system: NCI-H522
SF-268 = system: SF-268
SF-539 = system: SF-539
SK-MEL-2 = system: SK-MEL-2
SNB-75 = system: SNB-75
SR = system: SR
T47D = system: T47D
TK-10 = system: TK-10
U-251 = system: U-251
UACC-257 = system: UACC-257
Hs-578T = system: Hs-578T

Measured: GI50

CC(=O)OCCN1c2ccccc2Sc2cnccc21
inactive: A549 > 10 µM | COLO 205 > 10 µM | DU-145 > 10 µM | IGROV-1 > 10 µM | M14 > 10 µM | MDA-MB-231 > 10 µM | NCI-H522 > 10 µM | SF-268 > 10 µM | SF-539 > 10 µM | SK-MEL-2 > 10 µM | SNB-75 9.38 µM | SR > 10 µM | T47D > 10 µM | TK-10 > 10 µM | U-251 > 10 µM | UACC-257 > 10 µM

O=C1Nc2nnc(S)n2NC12c1ccccc1-c1ccccc12
inactive: A549 > 100 µM | COLO 205 > 100 µM | DU-145 > 100 µM | Hs-578T > 100 µM | IGROV-1 96.6 µM | M14 52 µM | MDA-MB-231 > 100 µM | NCI-H522 > 100 µM | SF-268 65.2 µM | SF-539 > 100 µM | SK-MEL-2 > 100 µM | SNB-75 > 100 µM | SR 33 µM | TK-10 > 100 µM | U-251 > 100 µM | UACC-257 17.2 µM

CC(=O)C1C(=O)C(=O)N(c2cccc([N+](=O)[O-])c2)C1=O (stereo not given)
inactive: A549 > 100 µM | COLO 205 > 100 µM | DU-145 > 100 µM | Hs-578T > 100 µM | IGROV-1 > 100 µM | M14 > 100 µM | MDA-MB-231 > 100 µM | NCI-H522 > 100 µM | SF-268 > 100 µM | SF-539 > 100 µM | SK-MEL-2 > 100 µM | SNB-75 > 100 µM | TK-10 > 100 µM | U-251 > 100 µM | UACC-257 > 100 µM

Cc1nc(=O)[nH]c2s/c(=N/C3CCCCC3)n(C3CCCCC3)c(=O)c12
inactive: A549 > 100 µM | COLO 205 > 100 µM | DU-145 > 100 µM | IGROV-1 > 100 µM | M14 > 100 µM | MDA-MB-231 > 100 µM | NCI-H522 > 100 µM | SF-539 > 100 µM | SK-MEL-2 > 100 µM | SNB-75 > 100 µM | T47D > 100 µM | TK-10 > 100 µM | U-251 > 100 µM | UACC-257 > 100 µM

Cn1c(=O)c2nc(Nc3ccccc3)[nH]c2n(C)c1=O
inactive: A549 > 10 µM | COLO 205 > 10 µM | DU-145 > 10 µM | IGROV-1 > 10 µM | M14 > 10 µM | MDA-MB-231 > 10 µM | SF-268 > 10 µM | SNB-75 > 10 µM | SR > 10 µM | T47D > 10 µM | TK-10 > 10 µM | UACC-257 > 10 µM

Cc1cn(C2CC(ON3C(=O)c4ccccc4C3=O)C(CO)O2)c(=O)[nH]c1=O (stereo not given)
inactive: A549 > 10 µM | DU-145 > 10 µM | Hs-578T > 10 µM | IGROV-1 > 10 µM | M14 > 10 µM | NCI-H522 > 10 µM | SF-268 > 10 µM | SF-539 > 10 µM | SK-MEL-2 > 10 µM | SNB-75 > 10 µM | SR > 10 µM | TK-10 > 10 µM | U-251 > 10 µM | UACC-257 > 10 µM

COC(=O)CCC1(O)C=CC(=O)C=C1
inactive: A549 > 100 µM | COLO 205 17.6 µM | DU-145 36.8 µM | Hs-578T 29.4 µM | IGROV-1 20.6 µM | M14 40.8 µM | MDA-MB-231 > 100 µM | NCI-H522 14.1 µM | SF-268 29.6 µM | SF-539 25.8 µM | SK-MEL-2 > 100 µM | SNB-75 > 100 µM | SR 25 µM | TK-10 36.7 µM | U-251 21.1 µM | UACC-257 17.1 µM

N=C(N)C1CN(CC=O)C(=O)NC1=O (stereo not given)
inactive: A549 > 100 µM | COLO 205 > 100 µM | DU-145 > 100 µM | IGROV-1 > 100 µM | M14 > 100 µM | MDA-MB-231 > 100 µM | SF-268 > 100 µM | SNB-75 > 100 µM | SR > 100 µM | T47D > 100 µM | TK-10 > 100 µM | U-251 > 100 µM | UACC-257 > 100 µM

Cc1ccc(C(=O)N/N=C(\N=N\c2ccccc2)c2ccc(N(C)C)cc2)cc1
inactive: A549 > 100 µM | COLO 205 57.3 µM | DU-145 20.9 µM | IGROV-1 > 100 µM | M14 > 100 µM | MDA-MB-231 > 100 µM | NCI-H522 65.8 µM | SF-268 50.7 µM | SF-539 > 100 µM | SK-MEL-2 > 100 µM | SR 35.5 µM | TK-10 > 100 µM | U-251 > 100 µM | UACC-257 > 100 µM

CCC(=O)C(C(C)/C=C/CCSc1ccccc1)C(O)CCCCCC(=O)OC (stereo not given)
inactive: A549 91.6 µM | COLO 205 > 100 µM | DU-145 > 100 µM | IGROV-1 > 100 µM | M14 > 100 µM | MDA-MB-231 > 100 µM | NCI-H522 89.3 µM | SF-268 > 100 µM | SF-539 > 100 µM | SK-MEL-2 > 100 µM | SNB-75 > 100 µM | SR 32.9 µM | TK-10 > 100 µM | U-251 77.8 µM | UACC-257 58.9 µM

— ChEMBL document CHEMBL1201862, “PubChem BioAssay data set” (2004)
